Measured values from patent US20260028354A1, “TETRAHYDRONAPHTHALENE DERIVATIVES AS ESTROGEN RECEPTOR DEGRADERS” (REGENT OF THE UNIVERSITY OF MICHIGAN, priority 2022, published 2026).
Where a name gives a salt, the structure may show the parent alone. Read-outs that look alike come from different tables or passages of the source.

Columns and labels:
CRBN/DDB1 = CRBN/DDB1 (Homo sapiens (Human), UniProt Q96SW2); type: binding; settings: His tagged CRBN+DDB1, Cy5-labeled Thalidomide probe, one hour; read-out: CRBN HTRF IC50
Chain of CRBN/DDB1 (Q96SW2 whole entry, species assumed): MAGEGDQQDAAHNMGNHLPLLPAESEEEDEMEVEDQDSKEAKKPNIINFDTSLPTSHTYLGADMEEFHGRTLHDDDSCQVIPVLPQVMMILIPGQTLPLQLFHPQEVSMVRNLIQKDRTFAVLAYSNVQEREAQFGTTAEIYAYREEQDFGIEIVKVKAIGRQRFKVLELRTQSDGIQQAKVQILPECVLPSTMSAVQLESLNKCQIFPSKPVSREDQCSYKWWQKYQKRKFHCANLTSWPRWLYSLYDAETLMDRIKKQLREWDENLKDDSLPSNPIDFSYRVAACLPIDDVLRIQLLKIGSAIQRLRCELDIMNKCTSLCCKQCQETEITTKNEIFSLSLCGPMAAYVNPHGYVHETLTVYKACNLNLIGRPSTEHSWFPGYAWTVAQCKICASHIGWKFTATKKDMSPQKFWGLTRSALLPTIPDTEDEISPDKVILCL
Chain of CRBN/DDB1 (Q16531 whole entry partner, species assumed): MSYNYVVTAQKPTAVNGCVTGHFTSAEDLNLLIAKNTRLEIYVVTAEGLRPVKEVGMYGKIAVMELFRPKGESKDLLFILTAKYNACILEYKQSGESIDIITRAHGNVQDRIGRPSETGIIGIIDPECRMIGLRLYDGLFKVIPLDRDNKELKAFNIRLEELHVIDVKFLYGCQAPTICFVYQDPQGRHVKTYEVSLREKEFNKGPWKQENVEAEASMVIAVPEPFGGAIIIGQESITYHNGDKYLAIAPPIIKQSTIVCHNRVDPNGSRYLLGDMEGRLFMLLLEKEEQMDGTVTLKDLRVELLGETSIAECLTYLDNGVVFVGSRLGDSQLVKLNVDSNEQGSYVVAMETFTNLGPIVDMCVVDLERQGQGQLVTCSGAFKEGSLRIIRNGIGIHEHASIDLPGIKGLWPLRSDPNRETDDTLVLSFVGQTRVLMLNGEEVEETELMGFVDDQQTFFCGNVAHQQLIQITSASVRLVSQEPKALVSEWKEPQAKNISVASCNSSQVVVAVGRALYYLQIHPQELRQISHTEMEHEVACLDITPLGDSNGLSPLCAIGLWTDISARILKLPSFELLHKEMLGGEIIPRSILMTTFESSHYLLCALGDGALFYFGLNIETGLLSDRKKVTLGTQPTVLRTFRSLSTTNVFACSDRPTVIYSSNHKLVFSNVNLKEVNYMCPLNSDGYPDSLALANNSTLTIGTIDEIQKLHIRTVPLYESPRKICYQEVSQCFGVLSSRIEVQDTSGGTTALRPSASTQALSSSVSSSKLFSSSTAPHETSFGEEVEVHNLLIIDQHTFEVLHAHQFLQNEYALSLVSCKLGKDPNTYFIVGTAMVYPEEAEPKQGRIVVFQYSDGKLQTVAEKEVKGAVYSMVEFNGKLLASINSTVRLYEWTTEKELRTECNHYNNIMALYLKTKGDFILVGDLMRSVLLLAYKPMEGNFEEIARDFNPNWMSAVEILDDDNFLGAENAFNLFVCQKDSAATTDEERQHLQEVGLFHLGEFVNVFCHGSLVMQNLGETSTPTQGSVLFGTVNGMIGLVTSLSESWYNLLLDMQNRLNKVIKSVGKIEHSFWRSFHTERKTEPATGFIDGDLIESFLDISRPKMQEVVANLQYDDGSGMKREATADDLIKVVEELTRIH
Experimental: The binding potency was determined using HTRF assay technology (Perkin Elmer). Compounds were serially diluted in DMSO and […] volume was transferred to white 384-well plate.

ER in MCF-7 cells = ER in MCF-7 cells (Homo sapiens (Human), UniProt P03372); test: In-cell Western (ICW) ER degradation assay in MCF-7 cells; type: cell-based; settings: for DC50: MCF-7, ER degradation, read-out: MCF7 DC50; for MCF7 Dmax: MCF-7, maximal ER degradation
Chain of ER in MCF-7 cells (P03372 whole entry): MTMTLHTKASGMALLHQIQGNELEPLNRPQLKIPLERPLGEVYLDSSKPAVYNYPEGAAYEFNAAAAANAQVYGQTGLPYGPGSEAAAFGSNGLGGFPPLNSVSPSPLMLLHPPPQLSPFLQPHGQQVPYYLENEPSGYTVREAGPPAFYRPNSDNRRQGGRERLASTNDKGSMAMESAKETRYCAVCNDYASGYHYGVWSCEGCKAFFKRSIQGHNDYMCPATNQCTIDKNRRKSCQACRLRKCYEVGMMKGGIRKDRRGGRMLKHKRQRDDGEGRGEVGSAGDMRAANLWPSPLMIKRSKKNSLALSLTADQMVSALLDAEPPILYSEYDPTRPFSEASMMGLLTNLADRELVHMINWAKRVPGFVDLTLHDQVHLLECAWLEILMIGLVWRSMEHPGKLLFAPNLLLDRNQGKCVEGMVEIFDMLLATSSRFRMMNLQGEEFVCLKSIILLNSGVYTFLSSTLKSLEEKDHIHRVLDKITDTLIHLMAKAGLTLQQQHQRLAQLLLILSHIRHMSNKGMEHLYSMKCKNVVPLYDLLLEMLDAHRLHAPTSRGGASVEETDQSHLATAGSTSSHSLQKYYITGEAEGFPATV

ER in T47D cells = ER in T47D cells (Homo sapiens (Human), UniProt P03372); test: In-cell Western (ICW) ER degradation assay in T47D cells; type: cell-based; settings: for DC50: ER degradation
Chain of ER in T47D cells (P03372 whole entry): as above

[1] = MCF7, read-out: MCF7 Dmax, MCF-7, maximal ER degradation, 16 hrs treatment
[2] = read-out: T47D Dmax, T47D, maximal ER degradation, 16 hrs treatment
[3] = MCF7, MCF-7, maximal ER degradation, 16 hrs treatment, read-out: MCF7 Dmax
[4] = maximal ER degradation, 16 hrs treatment, read-out: T47D Dmax
[5] = maximal ER degradation, 16 hrs treatment

| SMILES | IC50 (CRBN/DDB1) | Dmax (ER in MCF-7 cells; [1]) | DC50 (ER in MCF-7 cells; 16 hrs treatment) | DC50 (ER in T47D cells; 16 hrs treatment) | Dmax (ER in T47D cells; [2]) | Dmax (ER in MCF-7 cells; [3]) | Dmax (ER in T47D cells; [4]) | MCF7 Dmax (ER in MCF-7 cells; 16 hrs treatment) | T47D Dmax (ER in T47D cells; [5]) |
| --- | --- | --- | --- | --- | --- | --- | --- | --- | --- |
| COc1cc(N2CCC(CN3CCC4(CC3)COc3c4ccc4c3CN([C@H]3CCC(=O)NC3=O)C4=O)CC2)c(F)cc1[C@@H]1c2ccc(O)cc2CC[C@@H]1c1ccccc1 [Compound A93, (S)-3-(1′-((1-(2-fluoro-4-((1S,2S)-6-hydroxy-2-phenyl-1,2,3,4-tetrahydronaphthalen-1-yl)-5-methoxyphenyl)piperidin-4-yl)methyl)-6-oxo-6,8-dihydro-2H,7H-spiro[furo[2,3-e]isoindole-3,4′-piperidin]-7-yl)piperidine-2,6-dione] | < 50 nM | 50 to 75% | < 1 nM | < 1 nM | 50 to 75% | – | – | – | – |
| COc1cc(N2CCC(CN3CCC4(CC3)COc3c4ccc4c3CN([C@H]3CCC(=O)NC3=O)C4=O)CC2)ccc1[C@H]1c2ccc(O)cc2CC[C@H]1c1ccccc1 [Compound A36, (R)-3-(1′-((1-(4-((1S,2S)-6-hydroxy-2-phenyl-1,2,3,4-tetrahydronaphthalen-1-yl)-3-methoxyphenyl)piperidin-4-yl)methyl)-6-oxo-6,8-dihydro-2H,7H-spiro[furo[2,3-e]iso-indole-3,4′-piperidin]-7-yl)-piperidine-2,6-dione formate] | < 50 nM | 50 to 75% | < 1 nM | < 1 nM | 25 to 50% | – | – | – | – |
| O=C1CCC(Nc2ccc(C34CCN(C[C@@H]5COC6(CCN(c7ccc([C@@H]8c9ccc(O)cc9CC[C@@H]8c8ccccc8)cc7)CC6)C5)CC3C4(F)F)cc2)C(=O)N1 (stereo partly drawn) [Compound A45, (3S)-3-((4-(7,7-difluoro-3-(((R)-8-(4-((1R,2S)-6-hydroxy-2-phenyl-1,2,3,4-tetrahydro-naphthalen-1-yl)phenyl)-1-oxa-8-azaspiro[4.5]decan-3-yl)-methyl)-3-azabicyclo[4.1.0]heptan-6-yl)phenyl)amino)-piperidine-2,6-dione] | > 5000 nM | < 25% | > 100 nM | > 100 nM | < 25% | – | – | – | – |
| O=C1CCC(NC(=O)c2ccc(N3CCN(CC4CCN(c5ccc([C@@H]6c7ccc(O)cc7CC[C@@H]6c6ccccc6)cc5)CC4)CC3)cn2)C(=O)N1 (stereo partly drawn) [Compound A58, N-(2,6-dioxopiperidin-3-yl)-5-(4-((1-(4-((1R,2S)-6-hydroxy-2-phenyl-1,2,3,4-tetrahydro-naphthalen-1-yl)phenyl)piper-idin-4-yl)methyl)piperazin-1-yl)picolinamide] | > 5000 nM | – | < 1 nM | < 1 nM | – | > 75% | 50 to 75% | – | – |
| O=C1CC[C@@H](Nc2ccc([C@@]34CCN(CC5CC6(CCN(c7ccc([C@@H]8c9ccc(O)cc9CC[C@@H]8c8ccccc8)cc7)CC6)C5)C[C@@H]3C4(F)F)cc2)C(=O)N1 [Compound A67, (R)-3-((4-((1R,6R)-7,7-difluoro-3-((7-(4-((1R,2S)-6-hydroxy-2-phenyl-1,2,3,4-tetrahydronaphthalen-1-yl)-phenyl)-7-azaspiro[3.5]nonan-2-yl)methyl)-3-azabicyclo [4.1.0]heptan-6-yl)phenyl)-amino)piperidine-2,6-dione] | > 5000 nM | 50 to 75% | 1 to 10 nM | 1 to 10 nM | 50 to 75% | – | – | – | – |
| COc1cc(N2CCC3(CC2)CC(CN2CCN4c5ccc(C(=O)N[C@H]6CCC(=O)NC6=O)nc5OC[C@H]4C2)C3)c(F)cc1[C@@H]1c2ccc(O)cc2CC[C@@H]1c1ccccc1 [Compound A111, (R)-N-((S)-2,6-dioxopiperidin-3-yl)-3-((7-(2-fluoro-4-((1S,2S)-6-hydroxy-2-phenyl-1,2,3,4-tetrahydronaphthalen-1-yl)-5-methoxyphenyl)-7-azaspiro[3.5]nonan-2-yl)methyl)-1,2,3,4,4a,5-hexahydropyrazino[1,2-d]pyrido[2,3-b][1,4]oxazine-8-carboxamide] | > 5000 nM | – | 1 to 10 nM | 1 to 10 nM | – | 50 to 75% | > 75% | – | – |
| COc1cc(N2CCC3(CC2)CC(CN2CCN4c5ccc(C(=O)N[C@H]6CCC(=O)NC6=O)nc5OC[C@@H]4C2)C3)ccc1[C@H]1c2ccc(O)cc2CC[C@H]1c1ccccc1 (single isomer, unassigned) [Compound A107] | > 5000 nM | – | < 1 nM | < 1 nM | – | 50 to 75% | 50 to 75% | – | – |
| COc1cc(N2CCC(CN3CC[C@]4(c5ccc(N[C@@H]6CCC(=O)NC6=O)cc5)[C@H](C3)C4(F)F)CC2)ccc1[C@@H]1c2ccc(O)cc2CC[C@@H]1c1ccccc1 [Compound A89, (R)-3-((4-((1R,6R)-7,7-difluoro-3-((1-(4-((1S,2S)-6-hydroxy-2-phenyl-1,2,3,4-tetra-hydronaphthalen-1-yl)-3-meth-oxyphenyl)piperidin-4-yl)meth-yl)-3-azabicyclo[4.1.0]heptan-6-yl)phenyl)amino)-piperidine-2,6-dione] | > 5000 nM | 25 to 50% | < 1 nM | < 1 nM | 25 to 50% | – | – | – | – |
| COc1cc(N2CCC(CN3CCN4c5ccc6c(c5OC[C@H]4C3)CN([C@H]3CCC(=O)NC3=O)C6=O)CC2)c(F)cc1[C@H]1c2ccc(O)cc2CC[C@H]1c1ccccc1 [Compound A39, (S)-3-((R)-7-((1-(2-fluoro-4-((1R,2R)-6-hydroxy-2-phenyl-1,2,3,4-tetrahydronaphthalen-1-yl)-5-methoxyphenyl)piper-idin-4-yl)methyl)-1-oxo-1,3,5,5a,6,7,8,9-octahydro-2H-pyrazino[1′,2′:4,5][1,4]oxazino [2,3-e]isoindol-2-yl)piperidine-2,6-dione] | 50 to 500 nM | – | 10 to 100 nM | 1 to 10 nM | – | 25 to 50% | 50 to 75% | – | – |
| O=C1CC[C@H](N2Cc3c(ccc4c3OC[C@H]3CN(CC5COC6(C5)CN(c5ccc([C@@H]7c8ccc(O)cc8CC[C@@H]7c7ccccc7)cc5)C6)CCN43)C2=O)C(=O)N1 (single isomer, unassigned) [Compound A7] | 500 to 5000 nM | – | < 1 nM | < 1 nM | – | – | – | B (“B”: >50 and <75%) | B (“B”: >50 and <75%) |
| O=C1CC[C@@H](Nc2ccc(C3CCN(C[C@@H]4COC5(CCN(c6ccc([C@@H]7c8ccc(O)cc8CC[C@@H]7c7ccccc7)cc6)CC5)C4)CC3)cc2)C(=O)N1 (single isomer, unassigned) [Compound A29] | 50 to 500 nM | – | 10 to 100 nM | 10 to 100 nM | – | 25 to 50% | 25 to 50% | – | – |
| O=C1CC[C@@H](Nc2ccc(C3CCN(C[C@H]4COC5(CCN(c6ccc([C@@H]7c8ccc(O)cc8CC[C@@H]7c7ccccc7)cc6)CC5)C4)CC3)cc2)C(=O)N1 (single isomer, unassigned) [Compound A51] | 50 to 500 nM | – | > 100 nM | > 100 nM | – | < 25% | < 25% | – | – |
| COc1cc(N2CCC3(CC2)CC(CN2CCN4c5ccc6c(c5OC[C@H]4C2)CN([C@H]2CCC(=O)NC2=O)C6=O)CO3)ccc1[C@@H]1c2ccc(O)cc2CC[C@@H]1c1ccccc1 (stereo partly drawn) [Compound A53, (3S)-3-((5aR)-7-((8-(4-((1S, 2S)-6-hydroxy-2-phenyl-1,2,3,4-tetrahydronaphthalen-1-yl)-3-methoxyphenyl)-1-oxa-8-azaspiro[4.5]decan-3-yl)-methyl)-1-oxo-1,3,5,5a,6,7,8,9-octahydro-2H-pyrazino[1′,2′: 4,5][1,4]oxazino[2,3-e]isoindol-2-yl)piperidine-2,6-dione] | < 50 nM | – | 10 to 100 nM | 1 to 10 nM | – | 25 to 50% | 50 to 75% | – | – |
| O=C1CC[C@@H](Nc2ccc([C@@]34CCN(CC5CCC6(CC5)CN(c5ccc([C@@H]7c8ccc(O)cc8CC[C@@H]7c7ccccc7)cc5)C6)C[C@@H]3C4(F)F)cc2)C(=O)N1 [Compound A64, (R)-3-((4-((1R,6R)-7,7-difluoro-3-((2-(4-((1R,2S)-6-hydroxy-2-phenyl-1,2,3,4-tetra-hydronaphthalen-1-yl)phenyl)-2-azaspiro[3.5]nonan-7-yl)-methyl)-3-azabicyclo[4.1.0]heptan-6-yl)phenyl)amino)-piperidine-2,6-dione] | > 5000 nM | 50 to 75% | 1 to 10 nM | 1 to 10 nM | 50 to 75% | – | – | – | – |
| COc1cc(N2CCC(CN3CC[C@@]4(c5ccc(N[C@H]6CCC(=O)NC6=O)cc5)C(C3)C4(F)F)CC2)ccc1[C@@H]1c2ccc(O)cc2CC[C@@H]1c1ccccc1 (stereo partly drawn) [Compound A92, (3S)-3-((4-((1R)-7,7-difluoro-3-((1-(4-((1S,2S)-6-hydroxy-2-phenyl-1,2,3,4-tetrahydronaph-thalen-1-yl)-3-methoxyphenyl)-piperidin-4-yl)methyl)-3-azabi-cyclo[4.1.0]heptan-6-yl)phen-yl)amino)piperidine-2,6-dione] | > 5000 nM | 25 to 50% | < 1 nM | 1 to 10 nM | 25 to 50% | – | – | – | – |
| O=C1CC[C@H](N2Cc3c(ccc4c3OC[C@H]3CN(CC5COC6(C5)CN(c5ccc([C@@H]7c8ccc(O)cc8CC[C@@H]7c7ccccc7)cc5)C6)CCN43)C2=O)C(=O)N1 (single isomer, unassigned) [Compound A40] | < 50 nM | – | 10 to 100 nM | 10 to 100 nM | – | – | – | C (“C”: 25-50%) | C (“C”: 25-50%) |
| O=C1CC[C@H](N2Cc3cc4c(cc3C2=O)OC[C@H]2CN(C[C@H]3COC5(CCN(c6ccc([C@H]7c8ccc(O)cc8CC[C@H]7c7ccccc7)cc6)CC5)C3)CCN42)C(=O)N1 (single isomer, unassigned) [Compound A19] | 50 to 500 nM | – | 1 to 10 nM | 1 to 10 nM | – | 50 to 75% | 50 to 75% | – | – |
